Test system: 966289-007-R4-J1-PDC complex spheroid viability
Assay: Anticancer human tumor 966289-007-R4-J1-PDC patient-derived pancreatic adenocarcinoma cell line growth inhibition [RAS]
Settings: for IC50: curve of first compound; for viability, T/C: stronger effect = lower value
Summary of the method: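 Tumour cells grown as complex spheroids with HUVEC endothelial cells and mesenchymal stem cells, treated with RAS pathway inhibitor combinations. Each agent spans half-log steps from near clinical Cmax, or 10 microM where Cmax is unknown.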

[1] = second compound 0.00316 µM, first compound 0.0316 µM
[2] = second compound 0.00316 µM, first compound 0.1 µM
[3] = second compound 0.00316 µM, first compound 0.316 µM
[4] = second compound 0.00316 µM, first compound 1 µM
[5] = second compound 0.00316 µM, first compound 3.16 µM
[6] = second compound 0.00316 µM, first compound 10 µM
[7] = second compound 0.01 µM, first compound 0.0316 µM
[8] = second compound 0.01 µM, first compound 0.1 µM
[9] = second compound 0.01 µM, first compound 0.316 µM
[10] = second compound 0.01 µM, first compound 1 µM
[11] = second compound 0.01 µM, first compound 3.16 µM
[12] = second compound 0.01 µM, first compound 10 µM
[13] = second compound 0.0316 µM, first compound 0.0316 µM
[14] = second compound 0.0316 µM, first compound 0.1 µM
[15] = second compound 0.0316 µM, first compound 0.316 µM
[16] = second compound 0.0316 µM, first compound 1 µM
[17] = second compound 0.0316 µM, first compound 3.16 µM
[18] = second compound 0.0316 µM, first compound 10 µM
[19] = second compound 0.1 µM, first compound 0.0316 µM
[20] = second compound 0.1 µM, first compound 0.1 µM
[21] = second compound 0.1 µM, first compound 0.316 µM
[22] = second compound 0.1 µM, first compound 1 µM
[23] = second compound 0.1 µM, first compound 3.16 µM
[24] = second compound 0.1 µM, first compound 10 µM
[25] = second compound 0.316 µM, first compound 0.0316 µM
[26] = second compound 0.316 µM, first compound 0.1 µM
[27] = second compound 0.316 µM, first compound 0.316 µM
[28] = second compound 0.316 µM, first compound 1 µM
[29] = second compound 0.316 µM, first compound 3.16 µM
[30] = second compound 0.316 µM, first compound 10 µM
[31] = second compound 1 µM, first compound 0.0316 µM
[32] = second compound 1 µM, first compound 0.1 µM
[33] = second compound 1 µM, first compound 0.316 µM
[34] = second compound 1 µM, first compound 1 µM
[35] = second compound 1 µM, first compound 3.16 µM
[36] = second compound 1 µM, first compound 10 µM
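Also: spheroids exposed to agents for one week before readout.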
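For viability, T/C in this document: percent viability relative to DMSO vehicle control wells as 100%.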

## CC(=O)OC12COC1CC(O)C1(C)C(=O)C(O)C3=C(C)C(OC(=O)C(O)C(NC(=O)OC(C)(C)C)c4ccccc4)CC(O)(C(OC(=O)c4ccccc4)C21)C3(C)C (stereo not given) + C=CC(=O)N1CCN(c2nc(OCC3CCCN3C)nc3c(F)c(-c4nc(N)cc(C)c4C(F)(F)F)c(Cl)cc23)C(C)C1
Second compound 0.00316 µM
  IC50: < 31.6 nM
Second compound 0.01 µM
  IC50: < 31.6 nM
Second compound 0.0316 µM
  IC50: < 31.6 nM
Second compound 0.1 µM
  IC50: < 31.6 nM
Second compound 0.316 µM
  IC50: < 31.6 nM
Second compound 1 µM
  IC50: < 31.6 nM
[1]
  viability, T/C: 7.49%
[2]
  viability, T/C: 11.8%
[3]
  viability, T/C: 14.4%
[4]
  viability, T/C: 20.6%
[5]
  viability, T/C: 30.4%
[6]
  viability, T/C: 48.1%
[7]
  viability, T/C: 7.11%
[8]
  viability, T/C: 11.6%
[9]
  viability, T/C: 14.8%
[10]
  viability, T/C: 19.2%
[11]
  viability, T/C: 31.9%
[12]
  viability, T/C: 60.7%
[13]
  viability, T/C: 7.67%
[14]
  viability, T/C: 13.9%
[15]
  viability, T/C: 10.9%
[16]
  viability, T/C: 18.2%
[17]
  viability, T/C: 33.2%
[18]
  viability, T/C: 56.3%
[19]
  viability, T/C: 6.48%
[20]
  viability, T/C: 12.7%
[21]
  viability, T/C: 15.2%
[22]
  viability, T/C: 21.9%
[23]
  viability, T/C: 30.4%
[24]
  viability, T/C: 57.9%
[25]
  viability, T/C: 7.29%
[26]
  viability, T/C: 12%
[27]
  viability, T/C: 12.1%
[28]
  viability, T/C: 15.3%
[29]
  viability, T/C: 30.3%
[30]
  viability, T/C: 56.1%
[31]
  viability, T/C: 8.02%
[32]
  viability, T/C: 12.3%
[33]
  viability, T/C: 12.5%
[34]
  viability, T/C: 19%
[35]
  viability, T/C: 35.8%
[36]
  viability, T/C: 49.2%

## CCC(CC)c1cc(NC2CCC(N)C2)n2nccc2n1 (stereo not given) + C=CC(=O)N1CCN(c2nc(OCC3CCCN3C)nc3c(F)c(-c4nc(N)cc(C)c4C(F)(F)F)c(Cl)cc23)C(C)C1
Second compound 0.00316 µM
  IC50: 1900 nM
Second compound 0.01 µM
  IC50: 1830 nM
Second compound 0.0316 µM
  IC50: 1850 nM
Second compound 0.1 µM
  IC50: 1880 nM
Second compound 0.316 µM
  IC50: 1860 nM
Second compound 1 µM
  IC50: 1840 nM
[1]
  viability, T/C: 104%
[2]
  viability, T/C: 93.6%
[3]
  viability, T/C: 112%
[4]
  viability, T/C: 131%
[5]
  viability, T/C: 2.16%
[6]
  viability, T/C: 2.13%
[7]
  viability, T/C: 99.5%
[8]
  viability, T/C: 95.7%
[9]
  viability, T/C: 101%
[10]
  viability, T/C: 114%
[11]
  viability, T/C: 2.2%
[12]
  viability, T/C: 2.15%
[13]
  viability, T/C: 92%
[14]
  viability, T/C: 102%
[15]
  viability, T/C: 103%
[16]
  viability, T/C: 123%
[17]
  viability, T/C: 2.15%
[18]
  viability, T/C: 1.75%
[19]
  viability, T/C: 103%
[20]
  viability, T/C: 103%
[21]
  viability, T/C: 111%
[22]
  viability, T/C: 117%
[23]
  viability, T/C: 2.07%
[24]
  viability, T/C: 2.09%
[25]
  viability, T/C: 103%
[26]
  viability, T/C: 97.9%
[27]
  viability, T/C: 98.8%
[28]
  viability, T/C: 125%
[29]
  viability, T/C: 2.42%
[30]
  viability, T/C: 2.33%
[31]
  viability, T/C: 91.4%
[32]
  viability, T/C: 92.1%
[33]
  viability, T/C: 119%
[34]
  viability, T/C: 113%
[35]
  viability, T/C: 2.27%
[36]
  viability, T/C: 2.77%

## Cc1nc(N2CCC3(CC2)COC(C)C3N)c(CO)nc1Sc1ccnc(N)c1Cl (stereo not given) + C=CC(=O)N1CCN(c2nc(OCC3CCCN3C)nc3c(F)c(-c4nc(N)cc(C)c4C(F)(F)F)c(Cl)cc23)C(C)C1
Second compound 0.00316 µM
  IC50: > 10000 nM
Second compound 0.01 µM
  IC50: > 10000 nM
Second compound 0.0316 µM
  IC50: > 10000 nM
Second compound 0.1 µM
  IC50: > 10000 nM
Second compound 0.316 µM
  IC50: > 10000 nM
Second compound 1 µM
  IC50: > 10000 nM
[1]
  viability, T/C: 100%
[2]
  viability, T/C: 90.2%
[3]
  viability, T/C: 121%
[4]
  viability, T/C: 105%
[5]
  viability, T/C: 106%
[6]
  viability, T/C: 80%
[7]
  viability, T/C: 109%
[8]
  viability, T/C: 89.6%
[9]
  viability, T/C: 109%
[10]
  viability, T/C: 94.6%
[11]
  viability, T/C: 100%
[12]
  viability, T/C: 98.6%
[13]
  viability, T/C: 106%
[14]
  viability, T/C: 97.9%
[15]
  viability, T/C: 110%
[16]
  viability, T/C: 105%
[17]
  viability, T/C: 108%
[18]
  viability, T/C: 84.7%
[19]
  viability, T/C: 91.1%
[20]
  viability, T/C: 107%
[21]
  viability, T/C: 107%
[22]
  viability, T/C: 99.9%
[23]
  viability, T/C: 101%
[24]
  viability, T/C: 81.6%
[25]
  viability, T/C: 111%
[26]
  viability, T/C: 102%
[27]
  viability, T/C: 123%
[28]
  viability, T/C: 114%
[29]
  viability, T/C: 97.8%
[30]
  viability, T/C: 101%
[31]
  viability, T/C: 91.3%
[32]
  viability, T/C: 98.1%
[33]
  viability, T/C: 112%
[34]
  viability, T/C: 107%
[35]
  viability, T/C: 104%
[36]
  viability, T/C: 97.1%

## NC1c2ccccc2OC12CCN(c1cnc3c(N4CCCc5ncccc54)n[nH]c3n1)CC2 (stereo not given) + C=CC(=O)N1CCN(c2nc(OCC3CCCN3C)nc3c(F)c(-c4nc(N)cc(C)c4C(F)(F)F)c(Cl)cc23)C(C)C1
Second compound 0.00316 µM
  IC50: > 10000 nM
Second compound 0.01 µM
  IC50: > 10000 nM
Second compound 0.0316 µM
  IC50: > 10000 nM
Second compound 0.1 µM
  IC50: > 10000 nM
Second compound 0.316 µM
  IC50: > 10000 nM
Second compound 1 µM
  IC50: > 10000 nM
[1]
  viability, T/C: 117%
[2]
  viability, T/C: 90.1%
[3]
  viability, T/C: 126%
[4]
  viability, T/C: 102%
[5]
  viability, T/C: 113%
[6]
  viability, T/C: 103%
[7]
  viability, T/C: 113%
[8]
  viability, T/C: 104%
[9]
  viability, T/C: 104%
[10]
  viability, T/C: 122%
[11]
  viability, T/C: 107%
[12]
  viability, T/C: 118%
[13]
  viability, T/C: 113%
[14]
  viability, T/C: 103%
[15]
  viability, T/C: 133%
[16]
  viability, T/C: 113%
[17]
  viability, T/C: 126%
[18]
  viability, T/C: 119%
[19]
  viability, T/C: 101%
[20]
  viability, T/C: 103%
[21]
  viability, T/C: 94.2%
[22]
  viability, T/C: 105%
[23]
  viability, T/C: 119%
[24]
  viability, T/C: 107%
[25]
  viability, T/C: 109%
[26]
  viability, T/C: 91.4%
[27]
  viability, T/C: 107%
[28]
  viability, T/C: 120%
[29]
  viability, T/C: 102%
[30]
  viability, T/C: 106%
[31]
  viability, T/C: 105%
[32]
  viability, T/C: 114%
[33]
  viability, T/C: 123%
[34]
  viability, T/C: 113%
[35]
  viability, T/C: 116%
[36]
  viability, T/C: 124%

## Nc1ccn(C2OC(CO)C(O)C2(F)F)c(=O)n1 (stereo not given) + C=CC(=O)N1CCN(c2nc(OCC3CCCN3C)nc3c(F)c(-c4nc(N)cc(C)c4C(F)(F)F)c(Cl)cc23)C(C)C1
Second compound 0.00316 µM
  IC50: 6.89 nM
Second compound 0.01 µM
  IC50: 8.14 nM
Second compound 0.0316 µM
  IC50: 6.88 nM
Second compound 0.1 µM
  IC50: 6.58 nM
Second compound 0.316 µM
  IC50: 6.55 nM
Second compound 1 µM
  IC50: 6.83 nM
Second compound 0.00316 µM, first compound 0.00316 µM
  viability, T/C: 108%
Second compound 0.00316 µM, first compound 0.01 µM
  viability, T/C: 22.2%
[1]
  viability, T/C: 1.32%
[2]
  viability, T/C: 1.25%
[3]
  viability, T/C: 1.36%
[4]
  viability, T/C: 1.34%
Second compound 0.01 µM, first compound 0.00316 µM
  viability, T/C: 113%
Second compound 0.01 µM, first compound 0.01 µM
  viability, T/C: 36.4%
[7]
  viability, T/C: 1.5%
[8]
  viability, T/C: 1.37%
[9]
  viability, T/C: 1.44%
[10]
  viability, T/C: 1.42%
Second compound 0.0316 µM, first compound 0.00316 µM
  viability, T/C: 100%
Second compound 0.0316 µM, first compound 0.01 µM
  viability, T/C: 25.8%
[13]
  viability, T/C: 1.29%
[14]
  viability, T/C: 1.37%
[15]
  viability, T/C: 1.47%
[16]
  viability, T/C: 1.19%
Second compound 0.1 µM, first compound 0.00316 µM
  viability, T/C: 89.6%
Second compound 0.1 µM, first compound 0.01 µM
  viability, T/C: 27.3%
[19]
  viability, T/C: 1.5%
[20]
  viability, T/C: 1.39%
[21]
  viability, T/C: 1.15%
[22]
  viability, T/C: 1.1%
Second compound 0.316 µM, first compound 0.00316 µM
  viability, T/C: 93.6%
Second compound 0.316 µM, first compound 0.01 µM
  viability, T/C: 24.8%
[25]
  viability, T/C: 1.51%
[26]
  viability, T/C: 1.29%
[27]
  viability, T/C: 1.52%
[28]
  viability, T/C: 1.25%
Second compound 1 µM, first compound 0.00316 µM
  viability, T/C: 93.5%
Second compound 1 µM, first compound 0.01 µM
  viability, T/C: 28.4%
[31]
  viability, T/C: 1.78%
[32]
  viability, T/C: 1.63%
[33]
  viability, T/C: 1.74%
[34]
  viability, T/C: 1.61%

From PubChem BioAssay AID2060897 (Molecular Pharmacology Branch, DTP, NCI, 2025)
